Values quoted from earlier work as cited in US6455070B1, “Composition for treating symptoms of influenza” (East Park Research, Inc., priority 2001, dated 2002).

System: wide variety of viruses
Conditions: greatest activity under alkaline conditions (pH 7.5)

COC(=O)C1=CO[C@@H](C)[C@@H](C=O)[C@@H]1CC(=O)[O-].COC(=O)C1=CO[C@@H](C)[C@@H](C=O)[C@@H]1CC(=O)[O-].[Ca+2] [calcium elenolate]
in vitro antiviral activity: activity against a wide variety of viruses
